Columns and labels:
panel of 442 kinases [1] = biological target: T1, panel of 442 kinases (Homo sapiens, UniProt O75716); type: binding; settings: kinase STK16; compound concentration 10 µM
T1 construct: purchased KINOMEscan
Excerpt: (§1) We assessed the selectivity of members of this scaffold using the KINOMEscan methodology across a near comprehensive panel of 442 kinases [[18,27]].

panel of 442 kinases [2] = biological target: T2, panel of 442 kinases (Homo sapiens, UniProt O43318); type: binding; settings: kinase TAK1; compound concentration 10 µM
T2 construct: purchased KINOMEscan
T2 sequence (O43318 1-606): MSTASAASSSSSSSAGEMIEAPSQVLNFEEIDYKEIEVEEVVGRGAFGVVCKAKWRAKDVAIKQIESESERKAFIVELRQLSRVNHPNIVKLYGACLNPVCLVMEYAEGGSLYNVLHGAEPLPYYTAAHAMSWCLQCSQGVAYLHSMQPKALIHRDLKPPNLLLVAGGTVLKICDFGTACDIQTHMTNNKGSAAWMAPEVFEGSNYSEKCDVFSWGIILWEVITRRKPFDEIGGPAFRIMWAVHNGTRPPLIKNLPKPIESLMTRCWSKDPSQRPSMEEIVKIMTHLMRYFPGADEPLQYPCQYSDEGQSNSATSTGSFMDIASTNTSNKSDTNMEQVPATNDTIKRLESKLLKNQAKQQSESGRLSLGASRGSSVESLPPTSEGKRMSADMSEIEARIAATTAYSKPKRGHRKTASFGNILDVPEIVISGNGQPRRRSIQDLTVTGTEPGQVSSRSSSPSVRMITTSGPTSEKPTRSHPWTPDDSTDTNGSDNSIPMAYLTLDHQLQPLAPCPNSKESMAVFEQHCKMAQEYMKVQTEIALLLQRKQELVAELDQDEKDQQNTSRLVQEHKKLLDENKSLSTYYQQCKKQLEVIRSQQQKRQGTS
Excerpt: as §1

T1 sequence (O75716 whole entry): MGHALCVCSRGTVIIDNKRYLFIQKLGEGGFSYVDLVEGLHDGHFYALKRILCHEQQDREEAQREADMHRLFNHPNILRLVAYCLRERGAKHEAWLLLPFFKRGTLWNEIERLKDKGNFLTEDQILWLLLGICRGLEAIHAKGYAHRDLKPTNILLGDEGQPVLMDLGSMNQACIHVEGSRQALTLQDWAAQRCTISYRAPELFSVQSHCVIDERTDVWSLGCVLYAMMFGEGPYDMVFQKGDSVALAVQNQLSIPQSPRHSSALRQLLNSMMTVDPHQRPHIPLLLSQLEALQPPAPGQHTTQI

SMILES	% Ctrl, STK16 (panel of 442 kinases [1])	% Ctrl, TAK1 (panel of 442 kinases [2])
COc1cc(C(=O)N2CCC(N3CCN(C)CC3)CC2)ccc1Nc1ncc2c(n1)N(C)c1ccccc1C(=O)N2C [15 (LRRK2-IN-1)]	62 % Ctrl	98 % Ctrl
COc1cc(C(=O)N2CCC(N3CCN(C)CC3)CC2)ccc1Nc1ncc2c(n1)N1CCc3cccc(c31)C(=O)N2C [Compound 24]	50 % Ctrl	100 % Ctrl
COc1cc(C(=O)N2CCC(N3CCN(C)CC3)CC2)ccc1Nc1ncc2c(n1)N(C1CCCC1)c1ccccc1C(=O)N2C [Compound 25, 11-cyclopentyl-2-((2-methoxy-4-(4-(4-methylpiperazin-1-yl)piperidine-1-carbonyl)phenyl)amino)-5-methyl-5H-benzo[e]pyrimido[5,4-b][1,4]diazepin-6(11H)-one]	75 % Ctrl	100 % Ctrl
CCOc1cc(C(=O)N2CCC(N3CCN(C)CC3)CC2)ccc1Nc1ncc2c(n1)N(C1CCCC1)c1ccccc1C(=O)N2C [Compound 26]	99 % Ctrl	100 % Ctrl

Source: publication PMC3914206
